In assay [1] the test system is Erysiphe graminis. The assay is described as follows: in vivo effect against powdery mildew on sprayed plants (Example 6, Table VI). Conditions: fenapronil 25 EC, benomyl 50 WP, 6 days after infection. As to the method:
(§1) The in vivo effect of various mixtures of triadimefon 50 WP and benomyl 50 WP was observed against powders mildew (Erysiphe graminis). The plants were grown in plots at 20° C., under a relative humidity of 98% for 7 days. The one-week old plant were then sprayed with the test composition and after drying were […] with Erysiphe graminis. After incubation for 6 days the results were evaluated.
The procedure described in Example 5 was used but fenapronil 25 EC and benomyl 50 WP were tested. The following results have been obtained.

In assay [2] the test system is Erysiphe graminis. The assay is described as follows: in vivo effect against powdery mildew on sprayed plants (Example 5, Table V). The note with it: triadimefon 50 WP, benomyl 50 WP, 6 days after infection. As to the method: as §1
The next assay relates to various fungi. Kind of assay: interaction / activity against various fungi in vitro, overall result in words. The assay is classed as cell-based.
The subject of assay [3] is lipid and sterol synthesis. The note with it: mode of action; cited from earlier work.
The subject of assay [4] is fungi which are sensitive to them. Conditions: Fritz et al. 1977; cited from earlier work.
Assay [5] concerns obligate parasites such as real powdery mildew, blight, rust. The note with it: cited from earlier work.

For the compound `CCCCNC(=O)n1c(NC(=O)OC)nc2ccccc21` [benomyl, methyl 1-(butylcarbamoyl)-2-benzimidazolecarbamate], the Extent of infection is recorded as 78% in the assay on Erysiphe graminis [1] (concentration 12 ppm); 64% in the assay on Erysiphe graminis [1] (concentration 25 ppm); 56% with Erysiphe graminis [1] (concentration 50 ppm); 32.2% in the assay with Erysiphe graminis [2] (concentration 3%); 23.3% with Erysiphe graminis [2] (concentration 6%); 16.3% in the assay with Erysiphe graminis [2] (concentration 12%).

As to `CCCCC(C#N)(Cn1ccnc1)c1ccccc1` (stereo not drawn) [fenapronil, 1H-α-butyl-α-phenylimidazol-1-yl-propanenitrile], the Extent of infection stood at 43% with Erysiphe graminis [1] (concentration 12 ppm), 23% in the assay on Erysiphe graminis [1] (concentration 25 ppm) and 14% with Erysiphe graminis [1] (concentration 50 ppm). In addition, the activity alone result in the assay with various fungi is “extremely potent alone and has a wide field of activity”. Moreover, the “inhibition of lipid and sterol synthesis” value in assay [3] is “inhibiting lipid and sterol synthesis”.

`CC(C)NC(=O)N1CC(=O)N(c2cc(Cl)cc(Cl)c2)C1=O` [promidion, 3-(3,5-dichlorophenyl)-2,4-dioxo-1-(N-isopropyl)-imidazolinecarboxamide]: the “accumulation of fatty acids and triglycerides” value in assay [4] is “induce an accumulation of fatty acids and triglycerides”.

Consider `CC(C)(C)C(=O)C(Oc1ccc(Cl)cc1)n1cncn1` (stereo not shown) [triadimefon, 1-(4-chlorophenoxy)-3,3-dimethyl-1-(1H)-(1,2,4-triazol-1-yl)buthan-2-one], for which the Extent of infection is reported as 73.5% in the assay on Erysiphe graminis [2] (concentration 3%), 66.0% in the assay with Erysiphe graminis [2] (concentration 6%) and 40.6% in the assay with Erysiphe graminis [2] (concentration 12%). For the same compound, the activity alone entry with various fungi is recorded as “entirely ineffective against the fungi tested in vitro”. In addition, the “inhibition of lipid and sterol synthesis” value in assay [3] is “inhibiting lipid and sterol synthesis”. Moreover, the “activity against obligate parasites” value in assay [5] is listed as “effective against obligate parasites such as real powdery mildew, blight, rust”.

For the compound `C=CC1(C)OC(=O)N(c2cc(Cl)cc(Cl)c2)C1=O` (stereo not shown) [vinclosolin, 3-(3,5-dichlorophenyl)-5-methyl-5-vinyl-1,3-oxazolidine-2,4-dione], the “accumulation of fatty acids and triglycerides” value in assay [4] was “induce an accumulation of fatty acids and triglycerides”.

Values taken from US4305953A, “Synergistic fungicidal compositions” (priority 1979, dated 1981).
